± gives the expanded uncertainty stated by the source.
Assay: xn = mol fraction of the nth substance listed
Conditions: 100.9 kPa, Liquid; for speed of sound: Single path-length method; for mass density: Vibrating tube method; for viscosity: Concentric cylinders viscometry

CCCC(=O)[O-].CC[NH2+]CC [diethylammonium butanoate] + O
Conditions | mass density [kg/m3] | speed of sound [m/s] | viscosity [mPa·s]
308.15 K, x1 = 0.0123 | 996.9 ± 0.4 | – | –
308.15 K, x1 = 0.0453 | 1000.03 ± 0.4 | – | –
308.15 K, x1 = 0.1005 | 994.12 ± 0.4 | – | –
308.15 K, x1 = 0.1439 | 981.01 ± 0.41 | – | –
308.15 K, x1 = 0.2067 | 973.03 ± 0.41 | 1659.9 ± 0.41 | –
308.15 K, x1 = 0.3096 | 957.65 ± 0.42 | 1581.6 ± 0.49 | –
308.15 K, x1 = 0.4951 | 938.09 ± 0.47 | 1494 ± 0.63 | –
308.15 K, x1 = 0.6812 | 927.6 ± 0.55 | 1435.5 ± 0.75 | –
308.15 K, x1 = 0.7974 | 912 ± 0.61 | 1424.2 ± 0.84 | –
308.15 K, x1 = 0.974 | 907.1 ± 0.75 | 1382.6 ± 0.98 | –
310.65 K, x1 = 0.0122 | – | – | 1.06 ± 0.02
310.65 K, x1 = 0.0451 | – | – | 2.43 ± 0.02
310.65 K, x1 = 0.0999 | – | – | 5.73 ± 0.03
310.65 K, x1 = 0.143 | – | – | 8.92 ± 0.04
310.65 K, x1 = 0.2051 | – | – | 14.41 ± 0.07
310.65 K, x1 = 0.3064 | – | – | 24.13 ± 0.12
310.65 K, x1 = 0.4879 | – | – | 34.17 ± 0.22
310.65 K, x1 = 0.6684 | – | – | 35.33 ± 0.27
310.65 K, x1 = 0.974 | – | – | 30.78 ± 0.32
313.15 K, x1 = 0.0122 | – | – | 1.01 ± 0.02
313.15 K, x1 = 0.0123 | 995 ± 0.4 | 1615.3 ± 0.22 | –
313.15 K, x1 = 0.0451 | – | – | 2.26 ± 0.02
313.15 K, x1 = 0.0453 | 997.13 ± 0.4 | 1743.8 ± 0.25 | –
313.15 K, x1 = 0.0999 | – | – | 5.25 ± 0.03
313.15 K, x1 = 0.1005 | 991.05 ± 0.4 | 1736.7 ± 0.29 | –
313.15 K, x1 = 0.143 | – | – | 8.13 ± 0.04
313.15 K, x1 = 0.1439 | 977.64 ± 0.41 | 1702.2 ± 0.35 | –
313.15 K, x1 = 0.2051 | – | – | 13.03 ± 0.06
313.15 K, x1 = 0.2067 | 969.96 ± 0.41 | 1644.3 ± 0.41 | –
313.15 K, x1 = 0.3064 | – | – | 21.59 ± 0.11
313.15 K, x1 = 0.3096 | 954.6 ± 0.43 | 1565.2 ± 0.49 | –
313.15 K, x1 = 0.4879 | – | – | 30.39 ± 0.19
313.15 K, x1 = 0.4951 | 934.18 ± 0.47 | 1478.3 ± 0.63 | –
313.15 K, x1 = 0.6684 | – | – | 31.48 ± 0.24
313.15 K, x1 = 0.6812 | 925.21 ± 0.55 | 1418.8 ± 0.75 | –
313.15 K, x1 = 0.7974 | 908.2 ± 0.61 | 1408.5 ± 0.84 | –
313.15 K, x1 = 0.974 | 903.2 ± 0.75 | 1365.2 ± 0.98 | 27.55 ± 0.28
315.65 K, x1 = 0.0122 | – | – | 0.96 ± 0.02
315.65 K, x1 = 0.0451 | – | – | 2.1 ± 0.02
315.65 K, x1 = 0.0999 | – | – | 4.82 ± 0.03
315.65 K, x1 = 0.143 | – | – | 7.42 ± 0.04
315.65 K, x1 = 0.2051 | – | – | 11.82 ± 0.06
315.65 K, x1 = 0.3064 | – | – | 19.39 ± 0.1
315.65 K, x1 = 0.4879 | – | – | 27.14 ± 0.17
315.65 K, x1 = 0.6684 | – | – | 28.13 ± 0.22
315.65 K, x1 = 0.974 | – | – | 24.73 ± 0.26
318.15 K, x1 = 0.0122 | – | – | 0.92 ± 0.02
318.15 K, x1 = 0.0123 | 992.7 ± 0.4 | 1617.5 ± 0.22 | –
318.15 K, x1 = 0.0451 | – | – | 1.96 ± 0.02
318.15 K, x1 = 0.0453 | 994.15 ± 0.4 | 1734.2 ± 0.25 | –
318.15 K, x1 = 0.0999 | – | – | 4.45 ± 0.03
318.15 K, x1 = 0.1005 | 987.76 ± 0.4 | 1722.8 ± 0.29 | –
318.15 K, x1 = 0.143 | – | – | 6.82 ± 0.04
318.15 K, x1 = 0.1439 | 974.31 ± 0.41 | 1687.3 ± 0.35 | –
318.15 K, x1 = 0.2051 | – | – | 10.76 ± 0.05
318.15 K, x1 = 0.2067 | 967.21 ± 0.41 | 1628.7 ± 0.41 | –
318.15 K, x1 = 0.3064 | – | – | 17.45 ± 0.09
318.15 K, x1 = 0.3096 | 952.7 ± 0.43 | 1548.6 ± 0.49 | –
318.15 K, x1 = 0.4879 | – | – | 24.28 ± 0.15
318.15 K, x1 = 0.4951 | 930.28 ± 0.47 | 1462.4 ± 0.63 | –
318.15 K, x1 = 0.6684 | – | – | 25.23 ± 0.2
318.15 K, x1 = 0.6812 | 922.19 ± 0.55 | 1401.9 ± 0.75 | –
318.15 K, x1 = 0.7974 | 904.3 ± 0.61 | 1393.8 ± 0.84 | –
318.15 K, x1 = 0.974 | 899.2 ± 0.75 | 1348.2 ± 0.98 | 22.26 ± 0.23
320.65 K, x1 = 0.0122 | – | – | 0.87 ± 0.02
320.65 K, x1 = 0.0451 | – | – | 1.84 ± 0.02
320.65 K, x1 = 0.0999 | – | – | 4.11 ± 0.03
320.65 K, x1 = 0.143 | – | – | 6.24 ± 0.03
320.65 K, x1 = 0.2051 | – | – | 9.82 ± 0.05
320.65 K, x1 = 0.3064 | – | – | 15.77 ± 0.08
320.65 K, x1 = 0.4879 | – | – | 21.77 ± 0.14
320.65 K, x1 = 0.6684 | – | – | 22.68 ± 0.18
320.65 K, x1 = 0.974 | – | – | 20.08 ± 0.21
